According to ChEMBL document CHEMBL4257571, “Discovery of 5-(2-chloro-4'-(1H-imidazol-1-yl)-[1,1'-biphenyl]-4-yl)-1H-tetrazole as potent and orally efficacious S-nitrosoglutathione reductase (GSNOR) inhibitors for the potential treatment of COPD” (Bioorg Med Chem Lett, 2018):

How the values were obtained:
Mus musculus [1] = experiment: (§1) Anti-inflammatory activity in C57BL/6 mouse model of cigarette smoke induced chronic obstructive pulmonary disease assessed as neutrophil count in bronchoalveolar lavage at 30 mg/kg, po administered once daily for 7 days 1 hr prior to first smoke exposure and measured on day 8 after last smoke exposure post single drug treatment by Leishman's staining based assay; format: functional
[2] = Metabolic stability of rat liver microsomes assessed as parent compound remaining at 0.1 uM after 60 mins in presence of NADPH by LC/MS/MS analysis; format: ADME, microsome; settings: read-out: Stability
[3] = target: Alcohol dehydrogenase class-3 (Homo sapiens, UniProt P11766); experiment: Inhibition of human GSNOR assessed as reduction in NADH consumption after 3 mins by spectrophotometric analysis
Sequence of Alcohol dehydrogenase class-3 (P11766 whole entry): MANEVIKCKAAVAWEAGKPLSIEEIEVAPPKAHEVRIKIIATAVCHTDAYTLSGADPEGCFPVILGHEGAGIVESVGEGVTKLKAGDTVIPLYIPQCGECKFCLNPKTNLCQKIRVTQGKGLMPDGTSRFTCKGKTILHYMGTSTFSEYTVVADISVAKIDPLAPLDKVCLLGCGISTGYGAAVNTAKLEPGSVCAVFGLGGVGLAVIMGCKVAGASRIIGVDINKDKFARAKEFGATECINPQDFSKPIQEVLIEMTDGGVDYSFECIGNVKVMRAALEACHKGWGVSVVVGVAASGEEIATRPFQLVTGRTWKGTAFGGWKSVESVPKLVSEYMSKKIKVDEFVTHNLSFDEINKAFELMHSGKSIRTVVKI

Mus musculus [4] = experiment: as §1, with “total leukocyte” for “neutrophil”, “100” for “30”, “hemocytometry” for “Leishman's staining based assay”; format: functional
Bos taurus = species on record: Bos taurus; experiment: Inhibition of bovine PDE6 at 10 uM using [3H]cGMP as substrate after 60 mins by scintillation counting analysis relative to control
[5] = Effective permeability of the compound by PAMPA assay; format: ADME; settings: read-out: Peff
Mus musculus [6] = experiment: as §1, with “macrophages” for “neutrophil”, “100” for “30”; format: functional
[7] = Efflux ratio of apparent permeability across basolateral to apical side over apical to basolateral side in human Calu3 cells; format: ADME, cell-based, Calu-3
hERG (KCNH2) = hERG (KCNH2) (Homo sapiens, UniProt Q12809); experiment: Inhibition of human ERG at 10 uM by patch clamp assay relative to control
Sequence of hERG (KCNH2) (Q12809 whole entry): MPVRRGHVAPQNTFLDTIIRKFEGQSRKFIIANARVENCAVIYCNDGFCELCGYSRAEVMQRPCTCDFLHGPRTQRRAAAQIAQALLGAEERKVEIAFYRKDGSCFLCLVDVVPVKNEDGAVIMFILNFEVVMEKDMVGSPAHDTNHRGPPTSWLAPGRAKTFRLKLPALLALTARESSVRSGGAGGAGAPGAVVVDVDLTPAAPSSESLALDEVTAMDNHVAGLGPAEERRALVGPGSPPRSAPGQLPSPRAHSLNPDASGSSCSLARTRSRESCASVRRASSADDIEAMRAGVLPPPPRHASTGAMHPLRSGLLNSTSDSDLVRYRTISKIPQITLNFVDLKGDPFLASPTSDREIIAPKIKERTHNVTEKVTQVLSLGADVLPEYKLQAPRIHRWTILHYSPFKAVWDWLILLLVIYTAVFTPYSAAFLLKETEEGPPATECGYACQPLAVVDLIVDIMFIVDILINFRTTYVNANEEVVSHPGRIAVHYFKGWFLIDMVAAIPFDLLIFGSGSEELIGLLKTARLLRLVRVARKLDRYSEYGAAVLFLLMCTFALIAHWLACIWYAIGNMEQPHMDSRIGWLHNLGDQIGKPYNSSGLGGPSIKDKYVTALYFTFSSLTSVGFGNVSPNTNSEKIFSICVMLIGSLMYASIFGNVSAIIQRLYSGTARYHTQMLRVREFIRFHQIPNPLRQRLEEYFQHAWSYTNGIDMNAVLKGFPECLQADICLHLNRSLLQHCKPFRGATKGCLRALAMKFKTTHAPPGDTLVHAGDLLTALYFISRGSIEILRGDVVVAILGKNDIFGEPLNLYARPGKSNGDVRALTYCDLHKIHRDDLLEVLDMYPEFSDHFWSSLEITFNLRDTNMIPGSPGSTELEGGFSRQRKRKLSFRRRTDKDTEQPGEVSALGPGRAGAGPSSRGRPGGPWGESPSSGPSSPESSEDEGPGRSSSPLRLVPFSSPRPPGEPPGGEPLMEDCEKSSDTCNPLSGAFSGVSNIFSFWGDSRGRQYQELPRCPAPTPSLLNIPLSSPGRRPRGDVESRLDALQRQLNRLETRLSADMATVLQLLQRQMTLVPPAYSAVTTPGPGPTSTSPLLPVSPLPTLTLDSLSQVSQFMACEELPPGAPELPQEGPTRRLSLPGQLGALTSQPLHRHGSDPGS

CYP1A2 = target: T1, CYP1A2 (Homo sapiens, UniProt P05177); experiment: Inhibition of CYP1A2 in human liver microsomes at 10 uM after 20 mins in presence of NADPH by LC/MS/MS analysis relative to control; format: ADME; settings: liver microsomes
T1 sequence (P05177 whole entry): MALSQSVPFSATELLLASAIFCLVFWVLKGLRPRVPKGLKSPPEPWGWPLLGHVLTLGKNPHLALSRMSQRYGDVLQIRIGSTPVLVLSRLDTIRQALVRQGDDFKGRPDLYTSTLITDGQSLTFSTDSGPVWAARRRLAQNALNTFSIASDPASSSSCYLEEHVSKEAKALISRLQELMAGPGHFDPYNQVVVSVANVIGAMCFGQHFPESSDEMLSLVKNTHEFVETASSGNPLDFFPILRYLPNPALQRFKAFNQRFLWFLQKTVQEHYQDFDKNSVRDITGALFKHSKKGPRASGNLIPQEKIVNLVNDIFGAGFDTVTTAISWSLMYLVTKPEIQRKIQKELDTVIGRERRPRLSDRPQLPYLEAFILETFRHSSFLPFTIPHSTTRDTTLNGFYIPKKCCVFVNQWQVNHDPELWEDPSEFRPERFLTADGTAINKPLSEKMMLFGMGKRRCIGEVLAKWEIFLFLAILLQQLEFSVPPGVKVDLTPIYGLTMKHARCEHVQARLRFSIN

Mus musculus [8] = experiment: Anti-inflammatory activity in po dosed C57BL/6 mouse model of cigarette smoke induced chronic obstructive pulmonary disease assessed as reduction in cellular infiltration in bronchoalveolar lavage administered once daily for 7 days 1 hr prior to first smoke exposure and measured on day 8 after last smoke exposure post single drug treatment by hemocytometry; format: functional, organism-based
Mus musculus [9] = experiment: as §1, with “10” for “30”; format: functional
[10] = target: Leukotriene B4 receptor 1 (Homo sapiens) (UniProt Q15722); experiment: Displacement of [3H]LTB4 to recombinant human LTB4 receptor at 10 uM after 60 mins by scintillation counting analysis relative to control
Sequence of Leukotriene B4 receptor 1 (Homo sapiens) (Q15722 whole entry): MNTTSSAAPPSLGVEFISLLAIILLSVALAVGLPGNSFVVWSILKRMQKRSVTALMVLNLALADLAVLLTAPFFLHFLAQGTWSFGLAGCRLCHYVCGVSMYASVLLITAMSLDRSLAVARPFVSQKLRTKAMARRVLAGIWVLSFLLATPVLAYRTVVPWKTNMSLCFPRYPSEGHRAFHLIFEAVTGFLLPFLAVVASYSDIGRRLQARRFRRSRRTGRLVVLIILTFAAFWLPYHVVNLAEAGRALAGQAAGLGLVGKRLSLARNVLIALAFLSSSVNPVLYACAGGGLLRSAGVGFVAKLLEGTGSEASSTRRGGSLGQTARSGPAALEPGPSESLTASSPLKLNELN

**Q.** Which Activity (Mus musculus [1]) does the source give for `Clc1cc(-c2nnn[nH]2)ccc1-c1ccc(-n2ccnc2)cc1` here?
**A.** Its Activity is 37%.

**Q.** What about the remaining at 1 h, 0.1 µM [2] of the same compound?
**A.** The remaining at 1 h, 0.1 µM was 83%.

**Q.** What about the IC50 [3] of the same compound?
**A.** Its IC50 is 9.2 nM.

**Q.** What about the Activity (Mus musculus [4]) of the same compound?
**A.** The Activity was 53%.

**Q.** And the inhibition (Bos taurus)?
**A.** The inhibition was 60%.

**Q.** And the Papp [5]?
**A.** Its Papp is 0.12 ×10⁻⁶ cm/s.

**Q.** And the Activity (Mus musculus [6])?
**A.** The Activity was 61%.

**Q.** What about the efflux ratio [7] of the same compound?
**A.** Its efflux ratio is 0.8.

**Q.** What about the inhibition at 10 µM (hERG (KCNH2)) of the same compound?
**A.** The inhibition at 10 µM was 11%.

**Q.** What about the inhibition at 20 min, 10 µM (CYP1A2) of the same compound?
**A.** The inhibition at 20 min, 10 µM was 32%.

**Q.** What about the Activity (Mus musculus [8]) of the same compound?
**A.** Its Activity is “Dose-dependent effect”.

**Q.** What about the Activity (Mus musculus [9]) of the same compound?
**A.** Its Activity is 25%.

**Q.** What about the inhibition [10] of the same compound?
**A.** Its inhibition is 64%.
